For assay [1], the target named is T1, human OX1 receptors (Homo sapiens, UniProt O43613).
T1 construct: expressed in transfected cells; host or cells: CHO cells
T1 sequence (O43613 1-425): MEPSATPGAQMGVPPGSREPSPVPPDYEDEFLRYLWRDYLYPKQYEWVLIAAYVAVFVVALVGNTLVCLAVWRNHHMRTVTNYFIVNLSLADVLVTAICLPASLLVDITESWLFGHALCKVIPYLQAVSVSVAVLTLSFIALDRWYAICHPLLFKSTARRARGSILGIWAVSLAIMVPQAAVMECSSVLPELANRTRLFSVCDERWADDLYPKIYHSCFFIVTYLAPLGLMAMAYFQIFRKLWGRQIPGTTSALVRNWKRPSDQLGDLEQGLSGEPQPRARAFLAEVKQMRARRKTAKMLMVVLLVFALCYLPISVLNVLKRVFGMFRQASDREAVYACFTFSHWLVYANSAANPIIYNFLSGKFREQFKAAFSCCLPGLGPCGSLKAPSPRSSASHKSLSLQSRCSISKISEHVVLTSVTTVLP
The assay can be described thus: antagonistic activity against human OX1 receptor, [Ca2+]i fluorimetry in transfected CHO cells. The note with it: CHO cells transfected with human recombinant OX1; activated with orexin-A 3 nM; pKb = co-logarithm of apparent dissociation constant (modified Cheng Prusoff). Type of assay: cell-based. How it is done: (§1) Thus the plate was loaded with the calcium dye (Fluo-4NW/probenecid in HBSS, Hepes 20 mM, pH 7.4; Invitrogen) at 37° C. for 60 min. Afterward the temperature was equilibrated at 22° C. for 15 min and the [Ca2+]i measured directly on the plate by using a fluorescent plate reader (CeliLux Perkin Elmer).
(§2) Invention compounds were dissolved in DMSO, diluted in HBSS (DMSO, 0.3% final) and added to the wells. After 5 min CHO cells were activated with orexin-A, 3 nM while HEK-293 cells were activated with orexin-B, 10 nM. […] The antagonistic activity has been expressed as pKb (co-logarithm of the apparent dissociation constant calculated by using the modified Cheng Prusoff equation). The results are expressed as percent of control specific […] response ((measured specific response/control specific agonist response)×100) obtained in the presence of the test compounds.
(§3) The IC50 values (concentration causing a half-maximal inhibition of the control specific agonist response) were determinated by non-linear regression analysis of the concentration curves generated with mean replicate values using hill equation curve fitting. The IC50 values are obtained by the arithmetical mean of at least two experiments.

The target of assay [2] is T2, human OX2 receptors (Homo sapiens, UniProt O43614).
T2 construct: expressed in transfected cells; host or cells: HEK-293 cells
T2 sequence (O43614 1-444): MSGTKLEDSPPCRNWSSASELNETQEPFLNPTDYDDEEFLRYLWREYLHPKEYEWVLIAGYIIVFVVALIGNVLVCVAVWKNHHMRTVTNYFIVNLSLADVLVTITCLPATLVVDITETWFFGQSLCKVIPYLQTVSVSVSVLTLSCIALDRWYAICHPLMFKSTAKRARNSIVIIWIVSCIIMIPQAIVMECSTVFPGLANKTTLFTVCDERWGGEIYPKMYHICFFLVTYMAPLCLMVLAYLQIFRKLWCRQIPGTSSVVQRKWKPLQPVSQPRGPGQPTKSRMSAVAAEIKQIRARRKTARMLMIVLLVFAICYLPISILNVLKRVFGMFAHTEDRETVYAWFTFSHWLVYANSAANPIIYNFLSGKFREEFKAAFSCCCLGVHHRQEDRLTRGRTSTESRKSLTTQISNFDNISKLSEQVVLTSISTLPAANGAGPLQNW
The assay can be described thus: antagonistic activity against human OX2 receptor, [Ca2+]i fluorimetry in transfected HEK-293 cells. Type of assay: cell-based. The settings on record: read-out: PKb OX2 (converted). Here is the method: as §1, §2, §3

`COc1ccc(OC)c(C(=O)N2CCC(F)(F)CC2CNc2ccc(Cl)cn2)c1` (racemic) [Compound 11, (RS)(2-(((5-chloropyridin-2-yl)amino)methyl)-4,4-difluoropiperidin-1-yl)(2,5-dimethoxyphenyl)methanone]: the Kb in assay [1] was 7.94 nM; in assay [2], 10 µM.
With `CN(C)c1ccc(-c2ccccc2)c(C(=O)N2CCC(F)(F)CC2CNc2ccc(Cl)cn2)c1` (racemic) [Compound 18, (RS)(2-(((5-chloropyridin-2-yl)amino)methyl)-4,4-difluoropiperidin-1-yl)(4-(dimethylamino)-[1,1′-biphenyl]-2-yl)methanone], the Kb is 31.6 nM in assay [1] and 1 µM in assay [2].
On the same counts, the results for `O=C(c1cccc2cccnc12)N1CCC(F)(F)CC1CNc1ccc(Cl)cn1` (racemic) [Compound 25, (RS)(2-(((5-chloropyridin-2-yl)amino)methyl)-4,4-difluoropiperidin-1-yl)(quinolin-8-yl)methanone] are 0.794 nM and 10 µM.
On the same counts, the results for `N#Cc1ccc(-c2ncccn2)c(C(=O)N2CCC(F)(F)CC2CNc2ccc(Cl)cn2)c1` (racemic) [Compound 27, (RS)3-(2-(((5-chloropyridin-2-yl)amino)methyl)-4,4-difluoropiperidin-1-carbonyl)-4-(pyrimidin-2-yl)benzonitrile] are 1.58 nM and 10 µM.
Taken in the same sequence, the figures for `Cc1ccc(-c2ncccn2)c(C(=O)N2CCC(F)(F)CC2CNc2ncc(C(F)(F)F)cc2F)n1` (racemic) [Compound 31, (RS)(4,4-difluoro-2-(((3-fluoro-5-(trifluoromethyl)pyridin-2-yl)amino)methyl)piperidin-1-yl)(6-methyl-3-(pyrimidin-2-yl)pyridin-2-yl)methanone] were 3.98 nM and 10 µM.
As to `Cc1ccc(-c2ccccc2)c(C(=O)N2CCC(F)(F)CC2CNc2ccc(C(F)(F)F)cn2)n1` (racemic) [Compound 36, (RS)(4,4-difluoro-2-(((5-(trifluoromethyl)pyridin-2-yl)amino)methyl)piperidin-1-yl)(6-methyl-3-phenylpyridin-2-yl)methanone], the values for the Kb in assay [1] and in assay [2] were 3.16 nM and 10 µM, respectively.
Taken in the same sequence, the figures for `O=C(c1nc(C(F)(F)F)ccc1-c1ncccn1)N1CCC(F)(F)CC1CNc1ccc(C(F)(F)F)cn1` (racemic) [Compound 39, (RS)(4,4-difluoro-2-(((5-(trifluoromethyl)pyridin-2-yl)amino)methyl)piperidin-1-yl)(3-(pyrimidin-2-yl)-6-(trifluoromethyl)pyridin-2-yl)methanone] were 31.6 nM and 10 µM.
Turning to `Cc1ccc(-c2ccccc2)c(C(=O)N2CCC(F)(F)CC2CNc2cnc(C(F)(F)F)cn2)n1` (racemic) [Compound 43], the Kb in assay [1] was 3.16 nM; in assay [2], 10 µM.
For `Cc1ccc(-c2ccccc2)c(C(=O)N2CCC(F)(F)CC2CNc2ncc(C(F)(F)F)cc2F)n1` (racemic) [Compound 44, (RS)(4,4-difluoro-2-(((3-fluoro-5-(trifluoromethyl)pyridin-2-yl)amino)methyl)piperidin-1-yl)(6-methyl-3-phenylpyridin-2-yl)methanone], the Kb is 3.98 nM in assay [1] and 0.2 µM in assay [2].
As for `Cc1ccc(OCC2CC2)c(C(=O)N2CCC(F)(F)CC2CNc2ccc(C(F)(F)F)cn2)n1` (racemic) [Compound 45, (RS)(3-(cyclopropylmethoxy)-6-methylpyridin-2-yl)(4,4-difluoro-2-(((5-(trifluoromethyl)pyridin-2-yl)amino)methyl)piperidin-1-yl)methanone], the values for the Kb in assay [1] and in assay [2] were 3.98 nM and 10 µM, respectively.
On the same counts, the results for `Cc1ccc(OCc2ccccc2)c(C(=O)N2CCC(F)(F)CC2CNc2ccc(C(F)(F)F)cn2)n1` (racemic) [Compound 47, (RS)(3-(benzyloxy)-6-methylpyridin-2-yl)(4,4-difluoro-2-(((5-(trifluoromethyl)pyridin-2-yl)amino)methyl)piperidin-1-yl)methanone] are 12.6 nM and 10 µM.
Taken in the same sequence, the figures for `O=C(c1ncccc1-c1ccccc1)N1CCC(F)(F)CC1CNc1ccc(C(F)(F)F)cn1` (racemic) [Compound 51, (RS)(4,4-difluoro-2-((5-(trifluoromethylpyridin-2-yl)amino)methyl)piperidin-1-yl)(3-phenylpyridin-2-yl)methanone] were 6.31 nM and 10 µM.
On the same counts, the results for `Cc1ccc(-c2ccccn2)c(C(=O)N2CCC(F)(F)CC2CNc2ccc(C(F)(F)F)cn2)n1` (racemic) [Compound 53, (RS)(4,4-difluoro-2-(((5-(trifluoromethyl)pyridin-2-yl)amino)methyl)piperidin-1-yl)(6′-methyl-[2,3′-bipyridin]-2′-yl)methanone] are 15.8 nM and 10 µM.
Take `Cc1ccc(-n2nccn2)c(C(=O)N2CCC(F)(F)CC2CNc2nc(C)cc(C)n2)c1` (single isomer, unassigned; isomer a) [Compound 4, (2-(((4,6-dimethylpyrimidin-2-yl)amino)methyl)-4,4-difluoropiperidin-1-yl)(5-methyl-2-(2H-1,2,3-triazol-2-yl)phenyl)methanone (isomer A)]: the Kb in assay [1] was 2.51 nM; in assay [2] it was 0.2 µM.
As for `Cc1ccc(-c2ncccn2)c(C(=O)N2CCC(F)(F)CC2CNc2ccc(Cl)cn2)n1` (single isomer, unassigned; isomer a) [Compound 16, (2-(((5-chloropyridin-2-yl)amino)methyl)-4,4-difluoropiperidin-1-yl)(6-methyl-3-(pyrimidin-2-yl)pyridin-2-yl)methanone (isomer A)], the Kb is 0.631 nM in assay [1] and 10 µM in assay [2].
Taken in the same sequence, the figures for `Cc1ccc(-c2ncccn2)c(C(=O)N2CCC(F)(F)CC2CNc2ccc(C(F)(F)F)cn2)n1` (single isomer, unassigned; isomer a) [Compound 20, (4,4-difluoro-2-(((5-(trifluoromethyl)pyridin-2-yl)amino)methyl)piperidin-1-yl)(6-methyl-3-(pyrimidin-2-yl)pyridin-2-yl)methanone (isomer A)] were 0.794 nM and 0.316 µM.
On the same counts, the results for `O=C(c1cccc2cccnc12)N1CCC(F)(F)CC1CNc1ccc(Cl)cn1` (single isomer, unassigned; isomer a) [Compound 26, (2-(((5-chloropyridin-2-yl)amino)methyl)-4,4-difluoropiperidin-1-yl)(quinolin-8-yl)methanone (isomer A)] are 1.58 nM and 10 µM.
For `Cc1ccc(-n2nccn2)c(C(=O)N2CCC(F)(F)CC2CNc2ccc(Cl)cn2)n1` (single isomer, unassigned; isomer b) [Compound 9, (2-(((5-chloropyridin-2-yl)amino)methyl)-4,4-difluoropiperidin-1-yl)(6-methyl-3-(2H-1,2,3-triazol-2-yl)pyridin-2-yl)methanone (isomer B)], the Kb in assay [1] was 15.8 nM.
Still for that read-out and setting: next, `Cc1ccc(-c2ncccn2)c(C(=O)N2CCC(F)(F)CC2CNc2ccc(Cl)cn2)n1` (single isomer, unassigned; isomer b) [Compound 17, (2-(((5-chloropyridin-2-yl)amino)methyl)-4,4-difluoropiperidin-1-yl)(6-methyl-3-(pyrimidin-2-yl)pyridin-2-yl)methanone (isomer B)]: 100 nM.
Take “(RS)(4,4-difluoro-2-(((5-(trifluoromethyl)pyridin-2-yl)amino)methyl)piperidin-1-yl)(6-methyl-3-(pyrimidin-2-yl)pyridin-2-yl)methanone [Compound 42]”: the “PKb OX1” value in assay [1] is listed as 8.2.
